Laboratory results taken from patent publication US20130165368A1, “ANTIMICROBIAL COMPOUNDS” (priority 2010, published 2013).
Converted amounts (≈) assume the structure as drawn. Read-outs that look alike come from different tables or passages of the source.

Tests used:
Type in all cases: cell-based
MRSA EMRSA 15 1729/98 = assay: MIC agar dilution, MRSA strain 42; settings: Staphylococcus aureus
Experimental: (§1) Molar equivalent concentrations were used to allow comparison between compounds of differing molecular mass. Due to weighing difficulties, any compound in solid form was melted in a water bath prior to dilution. To make ten-times strength concentrations, which takes into account agar dilution, 0.0352 mmol of each compound was weighed into plastic universal bottles and 4 mL of sterile distilled water (SDW) was added. To produce a homogenous emulsion the universals were vortexed; once achieved the emulsions were serial diluted by adding 2 mL to 2 mL of SDW.
(§2) For every 100 mL of Isosensitest agar (IST) (CM0471; Oxoid, Basingstoke, England), 3.1 g of the IST powder was added to 100 mL SDW (as per manufacturer's instructions) and sterilised for 15 minutes at 121° C. Once sterilised, the molten agar was cooled to 50° C. in a water-bath. Subsequently 4.8 g of CCEY powder (BC2160; Bioconnections, Wetherby, England), also known as Brazier's medium, was added to 100 mL SDW for every 100 mL of agar needed. This was then sterilised for 15 minutes at 121° C. Once sterilised the molten agar was cooled to 50° C. in a water-bath and 4 mL of egg-yolk emulsion (S2073; TCS Biosciences Ltd, Buckingham, United Kingdom) and 1 mL of lysed defibrinated horse blood (HB035; TCS Biosciences Ltd, Buckingham, United Kingdom) were also added for every 100 mL needed. Horse blood lysis is achieved by dilution to half concentration with SDW; when fully lysed the mixture will turn dark red in colour.
(§3) 18 mL agar was added to each universal and then poured into sterile Petri dishes. This step creates a 1/10 dilution resulting in agar plates of the required strength. Control plates for each set of strains were created by adding 18 mL of agar to 2 mL of SDW.
(§4) Suspensions of each bacterial species were prepared with a density equal to that of a 0.5 McFarland standard using a densitometer. All suspensions were made using sterile distilled water and fresh 18-20 hour cultures. As a 0.5 McFarland standard contains 1.5×10^8 CFU/mL and the multipoint inoculators applies 1 μL spots of liquid, each bacterial suspension was diluted 1/15 (20 μL suspension to 280 μL sterile distilled water).
(§5) Bacterial suspensions were prepared from fresh 18-24 hour cultures as previously described. 1 μL of each strain was inoculated onto all 100 agar plates containing a different chemical concentration and the 2 control plates. This was done using a multipoint inoculator which inoculates 20 strains per plate. All plates were incubated for 22 hours at 37° C. in aerobic conditions.
(§6) Each plate was examined for bacterial growth after 22 and 48 hours, with each being incubated in between examinations. A positive result was recorded as growth of ≧10 colonies. A negative result was recorded as growth of <10 colonies as this is equivalent to 99.9% inhibition. The lowest concentration of chemical that inhibited growth was recorded as the MIC. The results are recorded in Table IV below, where the numbers are quoted in mmol/L.
(§7) Given the positive performance of the ethoxylates of lauryl alcohol in reducing the MIC for a number of the micro-organisms tested, further MIC testing of Laureth-1 [C12E1] through to Laureth-8 [C12E8] was conducted on each of the following: • 10 strains of vancomycin-resistant enterococci (VRE)—listed in Table V below; and • 20 strains of methicillin-resistant Staphylococcus aureus (MRSA)—listed in Table VI.
(§8) The alkanol, alkanol derivatives, agar plates, and inocula were all prepared in the same way as described above.
(§9) The plates were examined in the same manner as described above and the results are recorded in Table VII below, where the numbers are quoted in mmol/L.

[1] = tested on: Enterococcus faecalis (VRE) PHLS URINE 2000; assay: MIC agar dilution, VRE strain 21
Experimental: as §1, §2, §3, §4, §5, §6, §7, §8, §9

MRSA EMRSA 15 19972/98 = assay: MIC agar dilution, MRSA strain 39; settings: Staphylococcus aureus
Experimental: as §1, §2, §3, §4, §5, §6, §7, §8, §9

[2] = tested on: MRSA GER 131/98 (Sger Iidc); assay: MIC agar dilution, MRSA strain 35; settings: Staphylococcus aureus
Experimental: as §1, §2, §3, §4, §5, §6, §7, §8, §9

Escherichia coli = assay: MIC agar dilution, micro-organism 1 (10418); settings: Escherichia coli 10418, read-out: MIC
In short: (§10)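 Agar dilution in Isosensitest/CCEY agar with egg yolk and lysed horse blood; compounds as aqueous emulsions (myristyl and lauryl alcohol with 1-methyl-2-pyrrolidone and Tween 20). 1 µL spots of 1/15-diluted 0.5 McFarland suspensions, 37 °C aerobic, read at 22 and 48 h; MIC (mmol/L) is lowest concentration giving <10 colonies.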

[3] = tested on: Staphylococcus epidermidis; assay: MIC agar dilution, micro-organism 14 (11047); settings: Staphylococcus epidermidis 11047, read-out: MIC
In short: as §10

Staphylococcus aureus = assay: MIC agar dilution, micro-organism 13 (6571); settings: Staphylococcus aureus, Staphylococcus aureus 6571, read-out: MIC
In short: as §10

Enterococcus faecium = assay: MIC agar dilution, micro-organism 16 (7171); settings: Enterococcus faecium 7171, read-out: MIC
In short: as §10

[4] = tested on: MRSA GER 1966/97 (Hanover IIIc); assay: MIC agar dilution, MRSA strain 36; settings: Staphylococcus aureus
Experimental: as §1, §2, §3, §4, §5, §6, §7, §8, §9

Candida glabrata = assay: MIC agar dilution, micro-organism 20 (3943); settings: Nakaseomyces glabratus, Candida glabrata 3943, read-out: MIC
In short: as §10

MRSA EMRSA 16 07924/95 = assay: MIC agar dilution, MRSA strain 49; settings: Staphylococcus aureus
Experimental: as §1, §2, §3, §4, §5, §6, §7, §8, §9

MRSA EMRSA 15 1758/98 = assay: MIC agar dilution, MRSA strain 43; settings: Staphylococcus aureus
Experimental: as §1, §2, §3, §4, §5, §6, §7, §8, §9

MRSA EMRSA 16 00998/95 = assay: MIC agar dilution, MRSA strain 47; settings: Staphylococcus aureus
Experimental: as §1, §2, §3, §4, §5, §6, §7, §8, §9

Row | Compound | MIC (MRSA EMRSA 15 1729/98; 22 hrs) | MIC (MRSA EMRSA 15 1729/98; 48 hrs) | MIC ([1]; 22 hrs) | MIC ([1]; 48 hrs) | MIC (MRSA EMRSA 15 19972/98; 22 hrs) | MIC (MRSA EMRSA 15 19972/98; 48 hrs) | MIC ([2]; 22 hrs) | MIC ([2]; 48 hrs) | MIC (Escherichia coli; 22 hrs) | MIC (Escherichia coli; 48 hrs) | MIC ([3]; 22 hrs) | MIC ([3]; 48 hrs) | MIC (Staphylococcus aureus; 22 h, 22 hrs) | MIC (Staphylococcus aureus; 48 h, 48 hrs) | MIC (Enterococcus faecium; 22 hrs) | MIC (Enterococcus faecium; 48 hrs) | MIC ([4]; 22 hrs) | MIC ([4]; 48 hrs) | MIC (Candida glabrata; 22 h, 22 hrs) | MIC (Candida glabrata; 48 h, 48 hrs) | other results
1 | CCCCCCCCCCCCOCCOCCOCCO [L3, Triethylene Glycol Monododecyl Ether] | 110 µM (≈ 35 µg/mL) | 110 µM (≈ 35 µg/mL) | 220 µM (≈ 70.1 µg/mL) | 220 µM (≈ 70.1 µg/mL) | 110 µM (≈ 35 µg/mL) | 110 µM (≈ 35 µg/mL) | 110 µM (≈ 35 µg/mL) | 110 µM (≈ 35 µg/mL) | > 880 µM | > 880 µM | ≤ 50 µM | ≤ 50 µM | ≤ 50 µM | ≤ 50 µM | 110 µM (≈ 35 µg/mL) | 110 µM (≈ 35 µg/mL) | 55 µM (≈ 17.5 µg/mL) | 55 µM (≈ 17.5 µg/mL) | 110 µM (≈ 35 µg/mL) | 110 µM (≈ 35 µg/mL) | MIC (MRSA EMRSA 16 07924/95; 22 hrs): 55 µM (≈ 17.5 µg/mL); MIC (MRSA EMRSA 16 07924/95; 48 hrs): 55 µM (≈ 17.5 µg/mL); MIC (MRSA EMRSA 15 1758/98; 22 hrs): 55 µM (≈ 17.5 µg/mL); MIC (MRSA EMRSA 15 1758/98; 48 hrs): 110 µM (≈ 35 µg/mL); MIC (MRSA EMRSA 16 00998/95; 22 hrs): 55 µM (≈ 17.5 µg/mL); MIC (MRSA EMRSA 16 00998/95; 48 hrs): 55 µM (≈ 17.5 µg/mL)
2 | CCCCCCCCCCCCOCCOCCOCCOCCO [L4, Tetraethylene Glycol Monododecyl Ether] | 55 µM (≈ 19.9 µg/mL) | 55 µM (≈ 19.9 µg/mL) | 110 µM (≈ 39.9 µg/mL) | 110 µM (≈ 39.9 µg/mL) | 55 µM (≈ 19.9 µg/mL) | 55 µM (≈ 19.9 µg/mL) | 110 µM (≈ 39.9 µg/mL) | 110 µM (≈ 39.9 µg/mL) | > 880 µM | > 880 µM | 110 µM (≈ 39.9 µg/mL) | 110 µM (≈ 39.9 µg/mL) | 110 µM (≈ 39.9 µg/mL) | 110 µM (≈ 39.9 µg/mL) | 220 µM (≈ 79.8 µg/mL) | 220 µM (≈ 79.8 µg/mL) | 55 µM (≈ 19.9 µg/mL) | 55 µM (≈ 19.9 µg/mL) | 110 µM (≈ 39.9 µg/mL) | 110 µM (≈ 39.9 µg/mL) | MIC (MRSA EMRSA 16 07924/95; 22 hrs): 55 µM (≈ 19.9 µg/mL); MIC (MRSA EMRSA 16 07924/95; 48 hrs): 55 µM (≈ 19.9 µg/mL); MIC (MRSA EMRSA 15 1758/98; 22 hrs): 55 µM (≈ 19.9 µg/mL); MIC (MRSA EMRSA 15 1758/98; 48 hrs): 55 µM (≈ 19.9 µg/mL); MIC (MRSA EMRSA 16 00998/95; 22 hrs): 55 µM (≈ 19.9 µg/mL); MIC (MRSA EMRSA 16 00998/95; 48 hrs): 55 µM (≈ 19.9 µg/mL)
